Literature values as cited in patent publication US20070009558A1, “Sugar-free storage-stable antihistaminic syrups” (priority 2004, published 2007).
Like-named read-outs stand apart in the source and are kept apart here.

For `Clc1ccc2c(c1)CCc1cccnc1C2=C1CCNCC1` [Desloratadine, 8-chloro-6,11-dihydro-11-(4-piperdinylidene)-5H-benzo[5,6]cyclohepta[1 ,2-b]pyridine], the solubility (in ethanol) is listed as “very soluble”, the solubility (in propylene glycol) is listed as “very soluble” and the solubility (in water) is listed as “slightly soluble”.
